Data reported in ChEMBL document CHEMBL5726876, “NHE3-binding compounds and methods for inhibiting phosphate transport” (2019).
Where “and” joins values, the source holds several entries; their conditions need not be identical. Equal entries are not always repeated.

Assays:
[1] = Cell-based activity under Prompt Conditions: Cell-based activity under Prompt Conditions. Rat or human NHE3-mediated Na+-dependent H+ antiport was measured using a modification of the pH sensitive dye method originally reported by Paradiso (PNAS USA. 81:7436-7440, 1984). Opossum kidney (OK) cells were obtained from the ATCC and propagated per their instructions. The rat NHE3 gene (GenBank M85300) or the human NHE3 gene (GenBank NM_004174.1) was introduced into OK cells via electroporation, and cells were seeded into 96 well plates and grown overnight. Medium was aspirated from the wells, cells were washed twice with NaCl-HEPES buffer (100 mM NaCl, 50 mM HEPES, 10 mM glucose, 5 mM KCl, 2 mM CaCl2, 1 mM MgCl2, pH 7.4), then incubated for 30 min at room temperature with NH4Cl-HEPES buffer (20 mM NH4Cl, 80 mM NaCl, 50 mM HEPES, 5 mM KCl, 2 mM CaCl2, 1 mM MgCl2, pH 7.4) containing 5 μM bis(acetoxymethyl) 3,3′-(3′,6′-bis(acetoxymethoxy)-5-((acetoxymethoxy)carbonyl)-3-oxo-3H-spiro[isobenzofuran-1,9′-xanthene]-2′,7′-diyl)dipropanoate (BCECF-AM).Cells were washed twice with Ammonium free, Na+-free HEPES (100 mM choline, 50 mM HEPES, 10 mM glucose, 5 mM KCl, 2 mM CaCl2, 1 mM MgCl2, pH 7.4) and incubated in the same buffer for 10 minutes at room temperature to lower intracellular pH. […] Initial rates were plotted as the average 2 or more replicates, and pIC50 values were estimated using GraphPad Prism.
[2] = Cell-Based Assay of NHE3 Activity under Persistent Conditions: The ability of compounds to inhibit Rat NHE3-mediated Na+-dependent H+ antiport after application and washout was measured using a modification of the pH sensitive dye method described above. Opossum kidney (OK) cells were obtained from the ATCC and propagated per their instructions. The rat NHE3 gene was introduced into OK cells via electroporation, and cells were seeded into 96 well plates and grown overnight. Medium was aspirated from the wells, cells were washed twice with NaCl-HEPES buffer (100 mM NaCl, 50 mM HEPES, 10 mM glucose, 5 mM KCl, 2 mM CaCl2, 1 mM MgCl2, pH 7.4), then overlayed with NaCl-HEPES buffer containing 0-30 μM test compound.After a 60 min incubation, the test drug containing buffer was aspirated from the cells, cells were washed twice with NaCl-HEPES buffer without drug, then incubated for 30 min at room temperature with NH4Cl-HEPES buffer (20 mM NH4Cl, 80 mM NaCl, 50 mM HEPES, 5 mM KCl, 2 mM CaCl2, 1 mM MgCl2, pH 7.4) containing 5 uM BCECF-AM. Cells were washed twice with Ammonium free, Natfree HEPES (100 mM choline, 50 mM HEPES, 10 mM glucose, 5 mM KCl, 2 mM CaCl2, 1 mM MgCl2, pH 7.4) and incubated in the same buffer for 10 minutes at room temperature to lower intracellular pH. […] Initial rates were plotted as the average 2 or more replicates, and pIC50 values w
[3] = Cell-based assay of NaP2b activity: The rate of phosphate (Pi) uptake into cells was measured using a modification of a literature method (see Mohrmann et al. Am. J. Phys. 250(3 pt 1):G323-30, 1986). Briefly, HEK293 cells were transiently transfected with an expression clone encoding either rat or human NaP2b. The next day, transfected cells were treated with a pharmacological agent to minimize endogenous PiT-mediated phosphate transport activity, such that the only remaining sodium-dependent phosphate transport activity is that which was bestowed by introduction of the NaP2b gene. Cells were incubated with radioactive inorganic phosphate in the presence or absence of varying concentrations of test compound. After a short time, cells were washed, harvested, and the amount of hot phosphate taken up in the cells determined by liquid scintillation counting.HEK293 cells were obtained from the American Type Culture collection and propagated per their instructions. Expression clones for rat and human NaP2b (SLC34A2) were obtained from Open Biosystems (Catalog numbers MRN1768-9510282, and MHS1010-99823026, respectively). There are two putative splice variants of human NaP2b, designated as isoform a and isoform b (NCBI Reference Sequences: NP_006415.2 and NP_ 001171470.1, respectively). […] […]

Row | SMILES | IC50 [1] | IC50 [2] [nM] | IC50 [3] [µM]
1 | CN1Cc2c(Cl)cc(Cl)cc2[C@@H](c2cccc(S(=O)(=O)NCCOCCOCCNC(=O)NCCCCNC(=O)NCCOCCOCCNS(=O)(=O)c3cccc([C@H]4CN(C)Cc5c(Cl)cc(Cl)cc54)c3)c2)C1 | < 10000 nM and 50.1 nM | 2510 | 
2 | CN1Cc2c(Cl)cc(Cl)cc2[C@H](c2cccc(S(=O)(=O)NCCOCCOCCN(C)C(=O)CCC(CCC(=O)N(C)CCOCCOCCNS(=O)(=O)c3cccc([C@@H]4CN(C)Cc5c(Cl)cc(Cl)cc54)c3)(CCC(=O)N(C)CCOCCOCCNS(=O)(=O)c3cccc([C@@H]4CN(C)Cc5c(Cl)cc(Cl)cc54)c3)NC(=O)COCC(=O)O)c2)C1 | 20 nM |  | 
3 | CN1Cc2c(Cl)cc(Cl)cc2[C@H](c2cccc(S(=O)(=O)NCCOCCOCCN(C)C(=O)CCC(N)(CCC(=O)N(C)CCOCCOCCNS(=O)(=O)c3cccc([C@@H]4CN(C)Cc5c(Cl)cc(Cl)cc54)c3)CCC(=O)N(C)CCOCCOCCNS(=O)(=O)c3cccc([C@@H]4CN(C)Cc5c(Cl)cc(Cl)cc54)c3)c2)C1 | 15.8 nM |  | 
4 | CN1Cc2c(Cl)cc(Cl)cc2[C@H](c2cccc(S(=O)(=O)NCCOCCOCCNC(=O)CCC(CCC(=O)NCCOCCOCCNS(=O)(=O)c3cccc([C@@H]4CN(C)Cc5c(Cl)cc(Cl)cc54)c3)(CCC(=O)NCCOCCOCCNS(=O)(=O)c3cccc([C@@H]4CN(C)Cc5c(Cl)cc(Cl)cc54)c3)NC(=O)NC(CO)CO)c2)C1 | 79.4 nM |  | 
5 | CN(C)CC(=O)NC(CCC(=O)N(C)CCOCCOCCNS(=O)(=O)c1cccc([C@@H]2CN(C)Cc3c(Cl)cc(Cl)cc32)c1)(CCC(=O)N(C)CCOCCOCCNS(=O)(=O)c1cccc([C@@H]2CN(C)Cc3c(Cl)cc(Cl)cc32)c1)CCC(=O)N(C)CCOCCOCCNS(=O)(=O)c1cccc([C@@H]2CN(C)Cc3c(Cl)cc(Cl)cc32)c1 | 31.6 nM |  | 
6 | CN(C)[C@H]1Cc2c(Cl)cc(Cl)cc2[C@@H]1Oc1ccc(S(=O)(=O)NCCOCCOCCNC(=O)CCC(C)(CCC(=O)NCCOCCOCCNS(=O)(=O)c2ccc(O[C@H]3c4cc(Cl)cc(Cl)c4C[C@@H]3N(C)C)cc2)NC(=O)CCC(=O)O)cc1 | 10 nM |  | 
7 | CN1Cc2c(Cl)cc(Cl)cc2[C@H](c2cccc(S(=O)(=O)NCCOCCOCCNC(=O)Nc3ccc(NC(=O)NCCOCCOCCNS(=O)(=O)c4cccc([C@@H]5CN(C)Cc6c(Cl)cc(Cl)cc65)c4)cc3)c2)C1 | 2.51 nM |  | 
8 | CN1Cc2c(Cl)cc(Cl)cc2[C@H](c2cccc(NC(=O)[C@H](O)[C@@H](O)[C@H](O)[C@H](O)CO)c2)C1 | 25.1 nM |  | 
9 | CN1Cc2c(Cl)cc(Cl)cc2[C@H](c2cccc(S(=O)(=O)NCCOCCOCCNC(=O)NCCCCNC(=O)NCCOCCOCCNS(=O)(=O)c3cccc([C@@H]4CN(C)Cc5c(Cl)cc(Cl)cc54)c3)c2)C1 [TENAPANOR] | 9.33 nM and 10 nM | 3.98 | < 31.6
